Source: patent publication US9447086B2, “6-amino acid heteroaryldihydropyrimidines for the treatment and prophylaxis of hepatitis B virus infection” (priority 2012, dated 2016)
Read-outs that look alike come from different tables or passages of the source.

Legend:
HBV [1] = test: Anti-HBV activity in vitro in HepG2.2.15 cells (extracellular HBV DNA by qPCR); format: cell-based, Hepatitis B virus; settings: Hepatitis B virus
Outline: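 Supernatant HBV DNA was measured by qPCR after viral DNA extraction. Samples came from 5-day cultures of HepG2.2.15 cells, an HBV-genome-transfected HepG2 line, exposed to half-log compound dilutions in medium containing 0.5% DMSO.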

[2] = Cytotoxicity (CC50) in HepDE19 cells, CCK-8 cell viability; format: cell-based; settings: human, HepDE19 cells
Outline: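 HBV-transfected HepG2-derived HepDE19 cells grown in DMEM-F12 with 10% FBS and G418. Viability read five days after treatment by CCK-8, 2 h at 37 °C, absorbance at 450 and 630 nm.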

HBV [3] = test: Selectivity index (CC50 value/EC50 value); format: cell-based, Hepatitis B virus
Outline: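 Ratio of CC50 to EC50, measuring antiviral activity against HBV relative to cytotoxicity in vitro; higher values indicate greater separation between viral inhibition and cell death.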

[4] = Metabolic stability study in human microsome; format: in vitro ADME
Outline: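 Depletion of 1 μM compound followed by LC-MS/MS over 0–30 min (0, 3, 6, 9, 15, 30 min) after methanol quench. Incubations at 37 °C, pH 7.4 phosphate buffer, 0.5 mg/mL microsomal protein, with NADPH (1 mM) or a regenerating system as cofactor; controls lacked cofactor.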

[5] = Lyophilisation solubility assay (Lysa); format: physicochemical; settings: phosphate buffer, pH 6.5, aqueous buffer, thermodynamic from solid
Outline: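 Solubility in μg/mL is read by UV or HPLC-UV on filtrate, neat and diluted 1/10. Before filtration, the residue from evaporated 10 mM DMSO stock was taken up in pH 6.5 0.05 M phosphate buffer, then stirred 1 h, shaken 2 h and stood overnight, in duplicate.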

[6] = HepG2.2.15 cells, in-house data, read-out: EC50

Compound	EC50 (HBV [1]; [6]) [nM]	CC50 at 5 days ([2]; read-out: CC50) [nM]	Selectivity index (CC50/EC50) (HBV [3])	Human Hepatic Clearance [4] [mL/min/kg]	solubility thermodynamic [5] [µg/mL]	EC50 (HBV [1]; HepG2.2.15) [nM]	CC50 at 5 days [2] [nM]
CCOC(=O)C1=C(CN2CCOC[C@H]2C(=O)O)NC(c2nccs2)=N[C@H]1c1cccc(F)c1F [Example 70, (S)-4-[(R)-6-(2,3-Difluoro-phenyl)-5-ethoxycarbonyl-2-thiazol-2-yl-3,6-dihydro-pyrimidin-4-ylmethyl]-morpholine-3-carboxylic acid]	8.9	> 100000	>11236	2.22	> 611	–	–
COC(=O)C1=C(CN2CCOC[C@H]2C(=O)O)NC(c2nccs2)=N[C@H]1c1ccccc1Br [Example 71, (S)-4-[(R)-6-(2-Bromo-phenyl)-5-methoxycarbonyl-2-thiazol-2-yl-3,6-dihydro-pyrimidin-4-ylmethyl]-morpholine-3-carboxylic acid]	4.8	> 100000	>20833	2.81	> 642	–	–
COC(=O)C1=C(CN2CC(F)(F)C[C@H]2C(=O)O)NC(c2nccs2)=N[C@H]1c1ccc(F)c(F)c1Cl [Example 74, (R)-6-((S)-2-Carboxy-4,4-difluoro-pyrrolidin-1-ylmethyl)-4-(2-chloro-3,4-difluoro-phenyl)-2-thiazol-2-yl-1,4-dihydro-pyrimidine-5-carboxylic acid methyl ester]	2.1	72000	34286	0.51	> 655	–	–
COC(=O)C1=C(CN2CCOC[C@H]2C(=O)O)NC(c2nccs2)=N[C@H]1c1ccc(Cl)cc1F [Example 75, (S)-4-[(R)-6-(4-Chloro-2-fluoro-phenyl)-5-methoxycarbonyl-2-thiazol-2-yl-3,6-dihydro-pyrimidin-4-ylmethyl]-morpholine-3-carboxylic acid]	18	> 100000	5556	0	> 632	–	–
COC(=O)C1=C(CN2CCOC[C@H]2C(=O)O)NC(c2nccs2)=N[C@H]1c1ccc(Cl)c(F)c1 [Example 77, (S)-4-[(S)-6-(4-Chloro-3-fluoro-phenyl)-5-methoxycarbonyl-2-thiazol-2-yl-3,6-dihydro-pyrimidin-4-ylmethyl]-morpholine-3-carboxylic acid]	–	> 100000	14286	1.43	> 631	7	–
CCOC(=O)C1=C(CN2CCOC[C@H]2C(=O)O)NC(c2nccs2)=N[C@H]1c1ccc(Cl)c(F)c1 [Example 83, (S)-4-[(S)-6-(4-Chloro-3-fluoro-phenyl)-5-ethoxycarbonyl-2-thiazol-2-yl-3,6-dihydro-pyrimidin-4-ylmethyl]-morpholine-3-carboxylic acid]	1.5	25000	16440	1.77	> 652	–	–
COC(=O)C1=C(CN2CC(F)(F)C[C@H]2C(=O)O)NC(c2nccs2)=N[C@H]1c1ccc(F)cc1Br [Example 84, (R)-4-(2-Bromo-4-fluoro-phenyl)-6-((S)-2-carboxy-4,4-difluoro-pyrrolidin-1-ylmethyl)-2-thiazol-2-yl-1,4-dihydro-pyrimidine-5-carboxylic acid methyl ester]	–	–	>41667	9.3	> 668	2.4	> 100000
COC(=O)C1=C(CN2CC(F)(F)C[C@H]2C(=O)O)NC(c2nccs2)=N[C@H]1c1ccc(Cl)cc1Cl [Example 85, (R)-6-((S)-2-Carboxy-4,4-difluoro-pyrrolidin-1-ylmethyl)-4-(2,4-dichloro-phenyl)-2-thiazol-2-yl-1,4-dihydro-pyrimidine-5-carboxylic acid methyl ester]	6.2	66000	10694	6.91	> 599	–	–
COC(=O)C1=C(CN2CCOC[C@H]2C(=O)O)NC(c2nc(C3CC3)cs2)=N[C@H]1c1ccc(F)cc1Cl [Example 87, (3S)-4-[[(4R)-4-(2-Chloro-4-fluoro-phenyl)-2-(4-cyclopropylthiazol-2-yl)-5-methoxycarbonyl-1,4-dihydropyrimidin-6-yl]methyl]morpholine-3-carboxylic acid]	22	100000	>4545	6.86	> 600	–	–
CCOC(=O)C1=C(CN2CCOC[C@H]2C(=O)O)NC(c2nccs2)=N[C@H]1c1ccc(Br)cc1F [Example 93, (S)-4-[(R)-6-(4-Bromo-2-fluoro-phenyl)-5-ethoxycarbonyl-2-thiazol-2-yl-3,6-dihydro-pyrimidin-4-ylmethyl]-morpholine-3-carboxylic acid]	4.3	30000	6977	1.24	> 690	–	–
COC(=O)C1=C(CN2CCOC[C@H]2C(=O)O)NC(c2nccs2)=N[C@H]1c1ccc(Br)cc1F [Example 94, (S)-4-[(R)-6-(4-Bromo-2-fluoro-phenyl)-5-methoxycarbonyl-2-thiazol-2-yl-3,6-dihydro-pyrimidin-4-ylmethyl]-morpholine-3-carboxylic acid]	20	92000	4600	0.61	> 677	–	–
CCOC(=O)C1=C(CN2CCOC[C@H]2C(=O)O)NC(c2nccn2C)=N[C@H]1c1cccc(F)c1Cl [Example 97, (S)-4-[(R)-6-(2-Chloro-3-fluoro-phenyl)-5-ethoxycarbonyl-2-(1-methyl-1H-imidazol-2-yl)-3,6-dihydro-pyrimidin-4-ylmethyl]-morpholine-3-carboxylic acid]	5	44000	8800	1.63	> 640	–	–
CC(C)OC(=O)C1=C(CN2CCOC[C@H]2C(=O)O)NC(c2nccs2)=N[C@H]1c1cccc(F)c1Cl [Example 101, (S)-4-[(R)-6-(2-Chloro-3-fluoro-phenyl)-5-isopropoxycarbonyl-2-thiazol-2-yl-3,6-dihydro-pyrimidin-4-ylmethyl]-morpholine-3-carboxylic acid]	14	91000	6741	4.18	> 571	–	–
COC(=O)C1=C(CN2CC(F)(F)C[C@H]2C(=O)O)NC(c2ncoc2C)=N[C@H]1c1ccc(F)cc1Cl [Example 102, (R)-6-((5)-2-Carboxy-4,4-difluoro-pyrrolidin-1-ylmethyl)-4-(2-chloro-4-fluoro-phenyl)-2-(5-methyl-oxazol-4-yl)-1,4-dihydro-pyrimidine-5-carboxylic acid methyl ester]	9	23000	2599	0.97	> 635	–	–
